Assay results reported in patent US6491950B1, “Controlled release pharmaceutical composition” (Kos Pharmaceuticals, Inc., priority 2000, dated 2002).
Entries after “also recorded” stand apart in the source; their conditions may differ. Structures can show the parent of a compound that is named as a salt. Values belong to the compound of their own block, whether it stands above or below them.

Experiment: In vitro dissolution procedure, USP Basket Method (Apparatus I)
Format: physicochemical
Settings: 24 hours; for release of medicament, dependence on amount of high melting glyceride: Example 1, FIG. 1, Compritol 888 15-30%, hydrochloride; for release of medicament, dependence on type of medicament: Example 6, FIG. 6, 20% medicament, Methocel E10 P 3%, polysorbate 80 1%; for release of medicament, dependence on amount of surfactant: Example 7, FIG. 7, polysorbate 80 2.5, 5.0, 10.0%
Procedure: The dissolution release of the formulations was determined by the USP Basket Method (Apparatus I). By this method, samples are tested in a 40 mesh basket rotating at 100 RPM. Release media were used in a volume of 900 ml per dissolution vessel, maintained at 37° C. Double distilled deionized water was generally used as the dissolution media. Some formulations were also evaluated in simulated gastric fluid (0.1N hydrochloric acid, pH=1.2, no enzyme added) or simulated intestinal fluid (0.05 M phosphate buffer, pH=7.4, no enzyme added). Nine samples of 3.0 ml each were automatically collected at 2, 4, 6, […], 12, 14, 20 and 24 hours. The absorbency of the samples were measured at the peak wavelength in the ultraviolet spectrum with Hewliet Packard model 8453 spectrophotometer. The absorbency values were converted to percentages of added medicament that was released.

SMILES: Cn1c(=O)c2c(ncn2C)n(C)c1=O [caffeine]
release of medicament, dependence on cellulosic polymer (Example 9, FIG. 9, caffeine 20%, Methocel E10 P, Methocel K100M, Ethocel P20 or no polymer, olive oil): faster when the formulation contains Methocel K100M than Ethocel P20; also recorded: sustained over a 24 hour period

release of medicament, dependence on type of medicament (Compritol 888 25%, soybean oil): released faster than niacin or caffeine
SMILES: OCCOCCN1CCN(C(c2ccccc2)c2ccc(Cl)cc2)CC1 (stereo not shown) [hydroxyzine hydrochloride]
release of medicament, dependence on amount of high melting glyceride (hydroxyzine HCl 20%, soybean oil): moderately faster as the amount of higher fatty acid ester in the formulation is increased over a small range and then levels off
release of medicament, dependence on amount of high melting glyceride (hydroxyzine HCl 20%, soybean oil, listed as hydroxyzine HCl): consistent sustained release over 24 hours
release of medicament, dependence on type of oil (Example 2, FIG. 2, hydroxyzine HCl 20%, Compritol 888 25%, oil 51%): sustained at the same level over the period
release of medicament, dependence on type of high melting glyceride (Example 3, FIG. 3, hydroxyzine HCl 20%, glyceride 25%, soybean oil): fastest with Precirol AT05 slowest with Compritol 888/WL 2155, and intermediate with Compritol 888
release of medicament, dependence on type of cellulosic polymer (Example 4, FIG. 4, hydroxyzine HCl 20%, polymer 3% (Methocel E10 P, K15M, A4M, Ethocel P20)): released considerably faster from a formulation of Methocel K15M than Ethocel P20

release of medicament, dependence on type of medicament (Compritol 888 25%, soybean oil): released faster than niacin or caffeine
SMILES: COCCc1ccc(OCC(O)CNC(C)C)cc1 (stereo not shown) [metoprolol tartrate]
release of medicament, low hydroxypropyl ether celluloses (Example 11, FIG. 11, metoprolol tartrate 20%, LH 11, LH 22 or LH 30 3%, olive oil): sustained over a 24 hour period; also recorded: essentially the same for each cellulosic polymer of the formulation
release of medicament, dependence on amount of Compritol 888 (Example 12, FIG. 12, metoprolol tartrate 20%, Compritol 888 15-35%, olive oil): sustained over 24 hours; also recorded: higher at the higher amounts of compritol

release of medicament, dependence on amount of surfactant (niacin 20%, olive oil, listed as Niacin): sustained over 24 hours
SMILES: O=C(O)c1cccnc1 [niacin]
release of medicament, dependence on amount of surfactant (niacin 20%, olive oil): faster the higher the level of the surfactant above a level of about 5.0% of the total amount of the formulation
release of medicament, with or without cellulosic polymer (Example 8, FIG. 8, niacin 20%, Methocel E10 P 3% or none, olive oil): released faster from a formulation containing Methocel E10P than from a formulation devoid of the cellulosic polymer
